# According to patent US12397041B2, “Vasoactive intestinal peptide release from microparticles” (UNIVERSITY OF PITTSBURGH—OF THE COMMONWEALTH SYSTEM OF …, priority 2009, dated 2025):
# Entries after “also recorded” stand apart in the source; their conditions may differ. Ends that are not written are not given here.
# B1: CCL22: chemokine that binds the CCR4 receptor, involved in migration of regulatory T-cells (protein, UniProt O00626 25-93, looked up)
# C-C motif chemokine 22: GPYGANMEDSVCCRDYVRYRLPLRVVKHFYWTSDSCPRPGVVLLTFRDKEICADPRVPWVKMILNKLSQ
# Tests used:
# [1] = tested on: dendritic cells; experiment: CCL22 production by dendritic cells (ELISA); type: cell-based, murine; conditions: LPS-matured DCs, soluble VIP
# Protocol: Dendritic cells were isolated from murine bone marrow and cultured following standard procedures.
# (§1) In the first two experiments, both GM-CSF and IL-4 were added to DC media (modified RPMI 1640) of bone marrow cell cultures during media changes on Days 0, 3 and 6. In the third experiment, the IL-4 was purposely omitted and GM-CSF was added in 5× concentration. On Day 6, CD11c+ DC cells were isolated using MACS cell sorting beads and plated in a 24-well plate at 100,000 cells/well. Five different groups of four wells each were analyzed and received treatment. […] A mature DC control group received only LPS. Three different groups were matured with LPS and received different concentrations of either soluble VIP or releasates of VIP microparticles or blank microparticles (using the 12.6 kDa polymer).
# Dose Response Protocol: Soluble VIP was added in concentrations of 10^−6 M, 10^−8 M, and 10^−9 M to both immature DC groups and DCs matured with LPS. Twelve different groups were matured with LPS and received different concentrations of either blank porous, blank nonporous, VIP porous, or VIP nonporous microparticles (of the 12.6 kDa polymer). Microparticles were added in concentrations of either 2.77 mg/mL, 1.39 mg/mL, and 0.277 mg/mL. In a second DC culture, the low concentration of microparticles was reduced to 0.0556 mg/mL. […]
# [2] = tested on: FoxP3+CD4+ T-cells; experiment: Chemotaxis of CD4+ T-cells through transwells toward treated DCs, FoxP3+ by flow cytometry; type: cell-based, mouse; conditions: LPS
# Protocol: as §1
# Preliminary Protocol: Soluble VIP was added to the third group in concentration of 2.5×10^−8 M. Ten milligrams of microparticles were first incubated for 4-6 hours in media and 250 μL of releasates were added to each well. […]
# For chemotaxis studies, in the first two experiments, both GM-CSF and IL-4 were added to DC media (modified RPMI 1640) of bone marrow cell cultures during media changes on Days 0, 3 and 6. […] Five different groups of four wells each were analyzed and received treatment. […]
# CD4+ T-cells were isolated from the spleen and lymph nodes of a mouse using Dynal beads following the lab protocol. […] T Cells that flowed through were analyzed for FoxP3+ expression using flow cytometry.
# [3] = tested on: mice infected with A. actinomycetemcomitans (periodontitis); experiment: Mouse periodontitis model with CCL-22 microparticles / systemic VIP, alveolar bone resorption and Treg recruitment; type: in vivo
# Protocol: To this end, B6 mice (n=6) were infected orally with the periodontal pathogen A. actinomycetemcomitans (Aa) and treated with microparticles containing CCL-22 (CCL-22MPs) or empty microparticles (BlankMPs) according to the schedule outlined above. Additionally vasoactive intestinal peptide (VIP) was administered intraperitoneally. Mice receiving only PBS and the thickener carboxymethyl cellulose served as controls (Untreated). Experimental treatments were administered in the periodontal pocket of the right maxilla while left maxillae were used as internal negative controls in each mouse. Alveolar bone loss was quantified as the area between the cementoenamel junction (CEJ) and the alveolar bone crest (ABC) FIG. 23, CEJ and FIG. 23A, ABC). Alveolar bone levels are shown on the left (internal control, FIG. 23A LEFT) and right (BlankMP treated, FIG. 23A RIGHT) maxilla.
# [4] = tested on: FoxP3, IL-10, RANKL, CCL-22 mRNA in periodontal tissues; experiment: Real-time PCR of markers in periodontal tissues of diseased mice; type: in vivo, mouse; conditions: systemic injections at days −1, 7, 14, 21, 28
# Protocol: To verify that Tregs are recruited toward microparticles that sustain release of CCL-22, formulations were administered into the periodontium of diseased mice. Briefly, mice were orally exposed to the periodontal pathogen A. actinomycetemcomitans (Aar) on day 0, and also received CCL-22 microparticles (CCL-22MPs) or blank (empty) microparticles (BlankMPs) in their periodontal pockets. Specifically, mice received microparticle injections at day −1, 10 and 20, mice treated with VIP injections received systemic injections at days −1, 7, 14, 21, 28. Untreated mice served as negative controls. At day 30, all mice were sacrificed and maxilla's were resected. […] FIG. 22A. […] Figure BIB. […] FIG. 22C.
# In this experiment, artificial antigen presenting cells providing a CCL-22 controlled release formulation were injected into palatal gingival tissue of right molars of mice (n=3) at the times of −1, 10 and 20 days of periodontal infection. At 30 days, total RNA was extracted from periodontal tissues as previously described and analyzed for regulatory T-cell and periodontal disease factor. […]
# Real-Time PCR Analysis. […] RealTime-PCR quantitative mRNA analyses will be done in a MiniOpticon system (BioRad, Hercules, CA), using SybrGreen Master Mix (Invitrogen), 100 nM specific primers, and 2.5 ng of cDNA in each reaction. […]
# [5] = tested on: CD4+ T cells (CCR4); experiment: In vitro transwell migration assay toward CCL22; type: cell-based, murine; conditions: activated vs naïve CD4+ T cells
# Source text: (* p<0.05, one-tailed Students ‘t’ test).
# Simultaneously, the ability of CCL22 to attract murine T cells was examined. Expression of chemokine receptors for CCL22 (i.e., for example, the CCR4 receptor) are known to control the ability of cells to respond to CCL22 gradients. Moreover, there is evidence that only activated T cells express the CCR4 receptor. Baatar et al., Journal of Immunology 178: 4891-4900 (2007); Lim et al., Journal of Immunology 177:840-851 (2006); and Lee et al., Journal of Experimental Medicine 201:1037-1044 (2005); and FIG. 18A. […] FIG. 18B.
Molecule,CCL-22 production relative to mature DC control group [1],"percent of FoxP3+ cells recruited by DCs ([2]; DC precursors cultured with IL-4 and GM-CSF, soluble VIP 2.5×10^−8 M or releasates)","percent of FoxP3+ cells recruited by DCs ([2]; absence of IL-4, 5× GM-CSF)","alveolar bone resorption / bone loss ([3]; MPs at day −1, 10, 20, VIP systemic IP, day 30, vs BlankMPs / negative controls)","Treg (FoxP3+ cell) recruitment to gingival / periodontal tissues ([3]; mouse, in vivo)",endogenous CCL-22 production [4],T cell migration towards a CCL22 gradient [5]
"vasoactive intestinal peptide (HSDAVFTDNYTRLRKQMAVKKYLNSILN; ends and bridges not checked; UniProt P01282 125-152, looked up) [VIP, neuropeptide of twenty-eight (28) amino acids in length originally isolated from the intestine]",similar,recruited a higher percentage of FoxP3+ cells than DCs that only received LPS or releasates from blank particles,recruited the same percentage of FoxP3+ cells,significantly less alveolar bone resorption than BlankMPs,effectively induce Treg migration to periodontal tissues,induced endogenous production of CCL-22,
B1,,,,,,,"significantly greater migration of activated regulatory and effector CD4+ T cells; also recorded: activated T cells (both regulatory and effector cell populations), but not naïve T cells, migrated towards a CCL22 gradient"
